Measurements reported in patent US20090105217A1, “2-PHENYL-5-AMINO-1,3,4-OXADIAZOLES AND THEIR USE AS NICOTINIC ACETYLCHOLINE RECEPTOR LIGANDS” (priority 2007, published 2009).
Where a name gives a salt, the structure may show the parent alone.

Target: T1, human α7 nAChR (Homo sapiens, UniProt P36544)
T1 construct: host or cells: GH4C1 cells (pituitary tumor, immortalized cell line)
Assay: α7 nAChR FLIPR (Fluorometric Imaging Plate Reader) Ca2+ assay, agonist EC50
Assay type: cell-based
Conditions: for EC50: GH4C1 cells stably transfected with human α7 nAChR, Fluo-4 Ca2+ fluorescence, Examples 194 to 205 tested as the HCl salt, read-out: pEC50 value (negative logarithm of the agonist EC50) (converted); for activity in the alpha 7 assay: alpha 7 assay described in the Examples
Outline: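 GH4C1 cells stably expressing human α7 nAChR, loaded with 2 μM Fluo-4 for 45–60 min at 37 °C in HEPES buffer pH 7.3 with 2 mM CaCl2 and 2.5 mM probenecid. Peak calcium fluorescence (ex 488, em 510–580 nm) after compound addition fitted for agonist EC50, reported as pEC50.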

T1 sequence (P36544 23-502): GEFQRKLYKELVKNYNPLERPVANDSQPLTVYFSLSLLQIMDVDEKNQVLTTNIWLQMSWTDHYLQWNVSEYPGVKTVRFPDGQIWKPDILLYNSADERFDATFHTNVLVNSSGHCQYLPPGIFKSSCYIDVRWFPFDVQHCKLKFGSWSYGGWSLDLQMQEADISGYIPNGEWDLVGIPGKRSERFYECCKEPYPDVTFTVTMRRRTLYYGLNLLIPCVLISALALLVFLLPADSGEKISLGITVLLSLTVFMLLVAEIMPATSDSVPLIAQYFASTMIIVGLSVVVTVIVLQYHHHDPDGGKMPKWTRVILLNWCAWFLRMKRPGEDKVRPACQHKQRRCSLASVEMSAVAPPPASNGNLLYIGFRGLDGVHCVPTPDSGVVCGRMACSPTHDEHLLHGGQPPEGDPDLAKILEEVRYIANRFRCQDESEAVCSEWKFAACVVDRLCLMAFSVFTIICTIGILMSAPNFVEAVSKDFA

| SMILES | EC50 [nM] | activity in the alpha 7 assay |
| --- | --- | --- |
| CCN(CC)CCCCNc1nnc(-c2ccc(NC(=O)c3ccccc3F)cc2C(F)(F)F)o1 [Example 89, N-[4-(5-{[4-(diethylamino)butyl]amino}-1,3,4-oxadiazol-2-yl)-3-(trifluoromethyl)phenyl]-2-fluorobenzamide] | ≤ 100 |  |
| CCN(CC)CCCNc1nnc(-c2ccc(NC(=O)c3ccccc3)cc2C(F)(F)F)o1 [Example 95, N-[4-(5-{[3-(diethylamino)propyl]amino}-1,3,4-oxadiazol-2-yl)-3-(trifluoromethyl)phenyl]benzamide] | ≤ 1000 |  |
| CCN(CC)CCCNc1nnc(-c2ccc(NC(=O)C3CCCCC3)cc2F)o1 [Example 59, N-[4-(5-{[3-(diethylamino)propyl]amino}-1,3,4-oxadiazol-2-yl)-3-fluorophenyl]cyclohexanecarboxamide] | ≤ 1000 |  |
| O=C(Nc1ccc(-c2nnc(NCCCCN3CCOCC3)o2)c(Cl)c1)c1ccccc1 [Example 102, N-[3-chloro-4-(5-{[4-(4-morpholinyl)butyl]amino}-1,3,4-oxadiazol-2-yl)phenyl]benzamide] | ≤ 100 |  |
| O=C(Nc1ccc(-c2nnc(NCCCCN3CCCCC3)o2)c(F)c1)c1ccccc1F [Example 46, 2-fluoro-N-[3-fluoro-4-(5-{[4-(1-piperidinyl)butyl]amino}-1,3,4-oxadiazol-2-yl)phenyl]benzamide] | ≤ 100 |  |
| O=C(Nc1ccc(-c2nnc(NCCCN3CCOCC3)o2)c(C(F)(F)F)c1)c1ccccc1 [Example 93, N-[4-(5-{[3-(4-morpholinyl)propyl]amino}-1,3,4-oxadiazol-2-yl)-3-(trifluoromethyl)phenyl]benzamide] | ≤ 1000 |  |
| CCN(CC)CCCNc1nnc(-c2ccc(NC(=O)c3ccccc3)cc2OC)o1 [Example 74, N-[4-(5-{[3-(diethylamino)propyl]amino}-1,3,4-oxadiazol-2-yl)-3-(methyloxy)phenyl]benzamide] | ≤ 1000 |  |
| COc1cc(NC(=O)C2CCCCC2)ccc1-c1nnc(NCCCN2CCOCC2)o1 [Example 79, N-[3-(methyloxy)-4-(5-{[3-(4-morpholinyl)propyl]amino}-1,3,4-oxadiazol-2-yl)phenyl]cyclohexanecarboxamide] | ≤ 1000 |  |
| CC(C)(C)C(=O)Nc1ccc(-c2nnc(NCCCN3CCCCC3)o2)cc1 [2,2-dimethyl-N-[4-(5-{[3-(1-piperidinyl)propyl]amino}-1,3,4-oxadiazol-2-yl)phenyl]propanamide] |  | not found to have activity |
| CCN(CC)CCCCNc1nnc(-c2ccc(NC(=O)C3CCCCC3)cc2OC)o1 [Example 82, N-[4-(5-{[4-(diethylamino)butyl]amino}-1,3,4-oxadiazol-2-yl)-3-(methyloxy)phenyl]cyclohexanecarboxamide] | ≤ 1000 |  |
| COc1cc(NC(=O)C2CCCCC2)ccc1-c1nnc(NCCCCN2CCCCC2)o1 [Example 83, N-[3-(methyloxy)-4-(5-{[4-(1-piperidinyl)butyl]amino}-1,3,4-oxadiazol-2-yl)phenyl]cyclohexanecarboxamide] | ≤ 100 |  |
| O=C(Nc1ccc(-c2nnc(NCCCCN3CCCC3)o2)c(C(F)(F)F)c1)c1ccccc1F [Example 85, 2-fluoro-N-[4-(5-{[4-(1-pyrrolidinyl)butyl]amino}-1,3,4-oxadiazol-2-yl)-3-(trifluoromethyl)phenyl]benzamide] | ≤ 100 |  |
| O=C(Nc1ccc(-c2nnc(NCCCN3CCCCC3)o2)cc1)c1ccc(Cl)cc1 [Example 18, 4-Chloro-N-[4-(5-{[3-(1-piperidinyl)propyl]amino}-1,3,4-oxadiazol-2-yl)phenyl]benzamidehydrochloride] | ≤ 1000 |  |
| O=C(Nc1ccc(-c2nnc(NCCCN3CCOCC3)o2)c(C(F)(F)F)c1)c1ccccc1F [Example 86, 2-fluoro-N-[4-(5-{[3-(4-morpholinyl)propyl]amino}-1,3,4-oxadiazol-2-yl)-3-(trifluoromethyl)phenyl]benzamide] | ≤ 1000 |  |
| O=C(Nc1ccc(-c2nnc(NCCCN3CCCCC3)o2)c(F)c1)C1CCCCC1 [Example 53, N-[3-fluoro-4-(5-{[3-(1-piperidinyl)propyl]amino}-1,3,4-oxadiazol-2-yl)phenyl]cyclohexanecarboxamide] | ≤ 1000 |  |
| O=C(Nc1ccc(-c2nnc(NCCCCN3CCCCC3)o2)c(C(F)(F)F)c1)c1ccccc1 [Example 98, N-[4-(5-{[4-(1-piperidinyl)butyl]amino}-1,3,4-oxadiazol-2-yl)-3-(trifluoromethyl)phenyl]benzamide] | ≤ 100 |  |
| COc1cc(NC(=O)c2ccccc2)ccc1-c1nnc(NCCCCN2CCOCC2)o1 [Example 73, N-[3-(methyloxy)-4-(5-{[4-(4-morpholinyl)butyl]amino}-1,3,4-oxadiazol-2-yl)phenyl]benzamide] | ≤ 100 |  |

Now from value to compound:

| EC50 [nM] | activity in the alpha 7 assay | SMILES |
| --- | --- | --- |
| ≤ 1000 |  | O=C(Nc1ccc(-c2nnc(NCCCCN3CCOCC3)o2)c(Cl)c1)C1CCCCC1 [Example 161, N-[3-chloro-4-(5-{[4-(4-morpholinyl)butyl]amino}-1,3,4-oxadiazol-2-yl)phenyl]cyclohexanecarboxamide] |
| ≤ 100 |  | COc1cc(NC(=O)c2ccccc2F)ccc1-c1nnc(NCCCCN2CCCC2)o1 [Example 127, 2-fluoro-N-[3-(methyloxy)-4-(5-{[4-(1-pyrrolidinyl)butyl]amino}-1,3,4-oxadiazol-2-yl)phenyl]benzamide] |
| ≤ 100 |  | O=C(Nc1ccc(-c2nnc(NCCCN3CCN4CCC3CC4)o2)c(Cl)c1)c1ccccc1F [Example 125, N-[3-chloro-4-(5-{[3-(1,4-diazabicyclo[3.2.2]non-4-yl)propyl]amino}-1,3,4-oxadiazol-2-yl)phenyl]-2-fluorobenzamide] |
| ≤ 100 |  | CCN(CC)CCCCNc1nnc(-c2ccc(NC(=O)c3ccccc3)cc2F)o1 [Example 112, N-[4-(5-{[4-(diethylamino)butyl]amino}-1,3,4-oxadiazol-2-yl)-3-fluorophenyl]benzamide] |
| ≤ 1000 |  | O=C(Nc1ccc(-c2nnc(NCCCN3CCOCC3)o2)cc1)c1cccc(F)c1 [Example 195, 3-Fluoro-N-[4-(5-{[3-(4-morpholinyl)propyl]amino}-1,3,4-oxadiazol-2-yl)phenyl]benzamide] |
| ≤ 100 |  | CCOc1cc(NC(=O)c2ccccc2)ccc1-c1nnc(NCCCN2CCCCC2)o1 [Example 190, N-[3-(ethyloxy)-4-(5-{[3-(1-piperidinyl)propyl]amino}-1,3,4-oxadiazol-2-yl)phenyl]benzamide] |
| ≤ 1000 |  | CCC(C)N(C)CCCNc1nnc(-c2ccc(NC(=O)c3ccccc3F)cc2)o1 (stereo not drawn) [Example 136, 2-fluoro-N-{4-[5-({3-[methyl(1-methylpropyl)amino]propyl}amino)-1,3,4-oxadiazol-2-yl]phenyl}benzamide] |
| ≤ 1000 |  | CCN(CC)CCCNc1nnc(-c2ccc(NC(=O)C3CCCCC3)cc2)o1 [Example 149, N-[4-(5-{[3-(diethylamino)propyl]amino}-1,3,4-oxadiazol-2-yl)phenyl]cyclohexanecarboxamide] |
| ≤ 100 |  | CCN(CC)CCCCNc1nnc(-c2ccc(NC(=O)c3ccccc3)cc2Cl)o1 [Example 104, N-[3-chloro-4-(5-{[4-(diethylamino)butyl]amino}-1,3,4-oxadiazol-2-yl)phenyl]benzamide] |
| ≤ 100 |  | COc1cc(NC(=O)c2ccccc2F)ccc1-c1nnc(NCCCN2CCN3CCC2CC3)o1 [Example 120, N-[4-(5-{[3-(1,4-diazabicyclo[3.2.2]non-4-yl)propyl]amino}-1,3,4-oxadiazol-2-yl)-3-(methyloxy)phenyl]-2-fluorobenzamide] |
| ≤ 1000 |  | O=C(Nc1ccc(-c2nnc(NCCCN3CCCCC3)o2)c(Cl)c1)c1ccccc1 [Example 105, N-[3-chloro-4-(5-{[3-(1-piperidinyl)propyl]amino}-1,3,4-oxadiazol-2-yl)phenyl]benzamide] |
| ≤ 100 |  | O=C(Nc1ccc(-c2nnc(NCCCCN3CCCC3)o2)cc1)C1CCCCC1 [Example 147, N-[4-(5-{[4-(1-pyrrolidinyl)butyl]amino}-1,3,4-oxadiazol-2-yl)phenyl]cyclohexanecarboxamide] |
| ≤ 100 |  | O=C(Nc1ccc(-c2nnc(NCCCCN3CCCC3)o2)cc1)c1ccccc1 [Example 115, N-[4-(5-{[4-(1-pyrrolidinyl)butyl]amino}-1,3,4-oxadiazol-2-yl)phenyl]benzamide] |
| ≤ 100 |  | O=C(Nc1ccc(-c2nnc(NCCCCN3CCOCC3)o2)c(Cl)c1)c1ccccc1F [Example 154, N-[3-chloro-4-(5-{[4-(4-morpholinyl)butyl]amino}-1,3,4-oxadiazol-2-yl)phenyl]-2-fluorobenzamide] |
| ≤ 1000 |  | O=C(Nc1ccc(-c2nnc(NCCCN3CCOCC3)o2)cc1)c1c(F)cccc1F [Example 194, 2,6-Difluoro-N-[4-(5-{[3-(4-morpholinyl)propyl]amino}-1,3,4-oxadiazol-2-yl)phenyl]benzamide] |
| ≤ 1000 |  | CCN(CC)CCCCNc1nnc(-c2ccc(NC(=O)C3CCCCC3)cc2Cl)o1 [Example 160, N-[3-chloro-4-(5-{[4-(diethylamino)butyl]amino}-1,3,4-oxadiazol-2-yl)phenyl]cyclohexanecarboxamide] |
| ≤ 100 |  | CCN(CC)CCCCNc1nnc(-c2ccc(NC(=O)c3ccccc3)cc2)o1 [Example 119, N-[4-(5-{[4-(diethylamino)butyl]amino}-1,3,4-oxadiazol-2-yl)phenyl]benzamide] |
|  | not found to have activity | CCN(CC)CCCNc1nnc(-c2ccc(NC(=O)c3ccc(OC)cc3)cc2)o1 [N-[4-(5-{[3-(Diethylamino)propyl]amino}-1,3,4-oxadiazol-2-yl)phenyl]-4-(methyloxy)benzamide] |
| ≤ 1000 |  | O=C(Nc1ccc(-c2nnc(NCCCN3CCCC3)o2)cc1)C1CCCCC1 [Example 146, N-[4-(5-{[3-(1-pyrrolidinyl)propyl]amino}-1,3,4-oxadiazol-2-yl)phenyl]cyclohexanecarboxamide] |
